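1) Cells in 96-well plates. 2) Compound, 48 h, 5 concentrations. 3) Linear interpolation between surrounding doses. 4) Unreached endpoint = highest concentration. At the GI50, growth is halved. TGI: total growth inhibition.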
Columns and labels:
Assay in all cases: inhibition of tumour cell growth, NCI panel, 48 h
[1] = test system: 786-0 renal
[2] = test system: A498 renal
[3] = test system: A549 NSCLC
[4] = test system: ACHN renal
[5] = test system: BT-549 breast
[6] = test system: CAKI-1 renal
[7] = test system: CCRF-CEM leukemia
[8] = test system: COLO 205 colon
[9] = test system: EKVX NSCLC
[10] = test system: HCC-2998 colon
[11] = test system: HCT-116 colon
[12] = test system: HCT-15 colon
[13] = test system: HL-60(TB) leukemia
[14] = test system: HOP-62 NSCLC
[15] = test system: HOP-92 NSCLC
[16] = test system: HS 578T breast
[17] = test system: HT29 colon
[18] = test system: IGROV1 ovarian
[19] = test system: K-562 leukemia
[20] = test system: KM12 colon
[21] = test system: LOX IMVI melanoma
[22] = test system: M14 melanoma
[23] = test system: MALME-3M melanoma
[24] = test system: MCF7 breast
[25] = test system: MDA-MB-231 breast
[26] = test system: MDA-MB-435
[27] = test system: MOLT-4 leukemia
[28] = test system: NCI-H226 lung
[29] = test system: NCI-H23 lung
[30] = test system: NCI-H460 lung
[31] = test system: NCI-H522 lung
[32] = test system: NCI/ADR-RES ovarian
[33] = test system: OVCAR-3 ovarian
[34] = test system: OVCAR-4 ovarian
[35] = test system: OVCAR-5 ovarian
[36] = test system: OVCAR-8 ovarian
[37] = test system: PC-3 prostate
[38] = test system: RPMI-8226 leukemia
[39] = test system: RXF 393 renal
[40] = test system: SF-268 CNS
[41] = test system: SF-295 CNS
[42] = test system: SF-539 CNS
[43] = test system: SK-MEL-2 melanoma
[44] = test system: SK-MEL-28 melanoma
[45] = test system: SK-MEL-5 melanoma
[46] = test system: SK-OV-3 ovarian
[47] = test system: SN12C renal
[48] = test system: SNB-19 CNS
[49] = test system: SNB-75 CNS
[50] = test system: SR leukemia
[51] = test system: SW-620 colon
[52] = test system: T-47D breast
[53] = test system: TK-10 renal
[54] = test system: U251 CNS
[55] = test system: UACC-257 melanoma
[56] = test system: UACC-62 melanoma
[57] = test system: UO-31 renal

## C[C@@H](c1ccc2nccn2c1)n1nnc2ncc(-c3cnn(C)c3)nc21
[1]
  GI50: > 100 µM
  TGI: > 100 µM
[2]
  GI50: 72.8 µM
  TGI: > 100 µM
[3]
  GI50: > 100 µM
  TGI: > 100 µM
[4]
  GI50: > 100 µM
  TGI: > 100 µM
[5]
  GI50: 91.7 µM
  TGI: > 100 µM
[6]
  GI50: > 100 µM
  TGI: > 100 µM
[7]
  GI50: > 100 µM
  TGI: > 100 µM
[8]
  GI50: > 100 µM
  TGI: > 100 µM
[9]
  GI50: > 100 µM
  TGI: > 100 µM
[10]
  GI50: > 100 µM
  TGI: > 100 µM
[11]
  GI50: > 100 µM
  TGI: > 100 µM
[12]
  GI50: > 100 µM
  TGI: > 100 µM
[13]
  GI50: > 100 µM
  TGI: > 100 µM
[14]
  GI50: > 100 µM
  TGI: > 100 µM
[15]
  GI50: 58 µM
  TGI: > 100 µM
[16]
  GI50: > 100 µM
  TGI: > 100 µM
[17]
  GI50: > 100 µM
  TGI: > 100 µM
[18]
  GI50: > 100 µM
  TGI: > 100 µM
[19]
  GI50: > 100 µM
  TGI: > 100 µM
[20]
  GI50: 43.3 µM
  TGI: > 100 µM
[21]
  GI50: > 100 µM
  TGI: > 100 µM
[22]
  GI50: > 100 µM
  TGI: > 100 µM
[23]
  GI50: > 100 µM
  TGI: > 100 µM
[24]
  GI50: > 100 µM
  TGI: > 100 µM
[25]
  GI50: > 100 µM
  TGI: > 100 µM
[26]
  GI50: > 100 µM
  TGI: > 100 µM
[27]
  GI50: > 100 µM
  TGI: > 100 µM
[28]
  GI50: > 100 µM
  TGI: > 100 µM
[29]
  GI50: > 100 µM
  TGI: > 100 µM
[30]
  GI50: > 100 µM
  TGI: > 100 µM
[31]
  GI50: > 100 µM
  TGI: > 100 µM
[32]
  GI50: > 100 µM
  TGI: > 100 µM
[33]
  GI50: > 100 µM
  TGI: > 100 µM
[34]
  GI50: 65.1 µM
  TGI: > 100 µM
[35]
  GI50: > 100 µM
  TGI: > 100 µM
[36]
  GI50: > 100 µM
  TGI: > 100 µM
[37]
  GI50: > 100 µM
  TGI: > 100 µM
[38]
  GI50: 47.6 µM
  TGI: > 100 µM
[39]
  GI50: > 100 µM
  TGI: > 100 µM
[40]
  GI50: > 100 µM
  TGI: > 100 µM
[41]
  GI50: 0.83 µM
  TGI: > 100 µM
[42]
  GI50: > 100 µM
  TGI: > 100 µM
[43]
  GI50: > 100 µM
  TGI: > 100 µM
[44]
  GI50: > 100 µM
  TGI: > 100 µM
[45]
  GI50: > 100 µM
  TGI: > 100 µM
[46]
  GI50: > 100 µM
  TGI: > 100 µM
[47]
  GI50: > 100 µM
  TGI: > 100 µM
[48]
  GI50: > 100 µM
  TGI: > 100 µM
[49]
  GI50: > 100 µM
  TGI: > 100 µM
[50]
  GI50: 49.9 µM
  TGI: > 100 µM
[51]
  GI50: > 100 µM
  TGI: > 100 µM
[52]
  GI50: 53 µM
  TGI: > 100 µM
[53]
  GI50: > 100 µM
  TGI: > 100 µM
[54]
  GI50: > 100 µM
  TGI: > 100 µM
[55]
  GI50: > 100 µM
  TGI: > 100 µM
[56]
  GI50: > 100 µM
  TGI: > 100 µM
[57]
  GI50: > 100 µM
  TGI: > 100 µM
